Measured values from patent US7906128B2, “Use of neuronal sodium channel antagonists for the control of ectoparasites in homeothermic animals” (priority 2003, dated 2011).
Converted amounts (≈) assume the structure as drawn.

Columns and labels:
[1] = system: newly emerged larvae of blowfly, Lucilia sericata; assay: Efficacy against blowfly larvae on treated filter paper discs; details: for LC50: Lucilia sericata
Description: In this evaluation, filter paper discs are treated with an acetone solution of test compound and allowed to dry.

adult fleas = assay: Efficacy against adult fleas on beagles, full body spray; format: in vivo; details: full body spray 0.40% (wt/vol), Compound A 20 mg/kg, Standard 14.5 mg/kg body wt.
Description: In this evaluation twelve beagles are each infested with 100 unfed adult fleas. Each dog is assessed for its ability to retain fleas by a comb count taken 24 hours post infestation. The dogs are blocked by these flea counts and randomly assigned to one of four treatment groups. Test compounds are applied as a full body spray of a 0.40% (wt/vol) solution of test compound in a mixture of 1% Miglyol in N-methyl-2-pyrrolidinone. One day prior to treatment each dog is infested with 100 fleas and one day post treatment the dogs are comb counted to check for knockdown efficacy. The dogs were subsequently re-infested with fleas and comb counted 24 hours later at weekly intervals.

## N#Cc1nn(-c2c(Cl)cc(C(F)(F)F)cc2Cl)c(N)c1[S+]([O-])C(F)(F)F (centres unmarked) [Standard, fipronil]
[1]; 24 h
  LC50: 0.1 µg/mL (≈ 0.229 µM)
[1]; 48 h
  LC50: 0.07 µg/mL (≈ 0.16 µM)
[1]; mortality at 24 h
  LC99: 0.40 µg/mL
[1]; mortality at 48 h
  LC99: 0.30 µg/mL
Adult fleas; 1 DAT
  % Efficacy relative to nontreated control: 100%
Adult fleas; 7 DAT
  % Efficacy relative to nontreated control: 100%
Adult fleas; 14 DAT
  % Efficacy relative to nontreated control: 100%
Adult fleas; 21 DAT
  % Efficacy relative to nontreated control: 100%
Adult fleas; 28 DAT
  % Efficacy relative to nontreated control: 100%
Adult fleas; 35 DAT
  % Efficacy relative to nontreated control: 100%
Adult fleas; 42 DAT
  % Efficacy relative to nontreated control: 100%
Adult fleas; 49 DAT
  % Efficacy relative to nontreated control: 100%
Adult fleas; 56 DAT
  % Efficacy relative to nontreated control: 100%
Adult fleas; 62 DAT
  % Efficacy relative to nontreated control: 99.5%
